Reference: US10624871B2, “Bismuth(III) compounds and methods thereof” (priority 2016, dated 2020)

Assays:
NDM-1 [1] = target: T1, NDM-1 (Klebsiella pneumoniae, UniProt C7C422); assay: Hydrolysis rates of meropenem by native NDM-1 and Bi-bound NDM-1; assay type: biochemical; design: unit not given here; settings: MER hydrolysis by Bi-bound NDM-1
NDM-1 [2] = target: T1, NDM-1; assay: IC50 enzyme inhibition assay, MER hydrolysis; assay type: biochemical; settings: Zn2-NDM-1 50 nM, 1 h preincubation at 25° C., 100 μM MER
Source text: (§1) […]. The initial rate were extracted and calculated from each reaction curves.

VIM-2 = VIM-2 (Escherichia coli, UniProt Q5U7L7); assay: IC50 enzyme inhibition assay, MER hydrolysis; assay type: biochemical; settings: Zn2-VIM-2, 1 h preincubation at 25° C., 100 μM MER
Source text: as §1

E. coli (VIM-2+) = assay: Microdilution MIC and MBC assay, FICI; assay type: cell-based; settings: Bi(III) compound at 32 μg mL−1, E. coli (VIM-2+)
NDM-1 [3] = target: T1, NDM-1; assay: Zn(II) displacement by Bi(III) using ICP-MS; assay type: binding; settings: Zn2-NDM-1 20 μM incubated with CBS, 25° C., 5 hrs
Method: To monitor the replacement of Zn(II) by Bi(III), inductively-coupled plasma mass spectrometry (ICP-MS) was employed to accurately quantify ^209Bi and ^66Zn contents in various purified NDM-1 samples. Purified Zn2-NDM-1 was prepared as described previously and was dissolved in trace-metal-free ICP-MS buffer containing 50 mM HEPES, pH 7.0 through cycles of buffer washing using an Amicon Ultra-15 Centrifugal Filter Devices with 3 kDa cut-off. Zn2-NDM-1 (20 μM) was incubated with various concentrations of CBS at 25° C. for 5 hrs with mild shaking. The samples were subsequently dialyzed in ICP-MS buffer to remove unbound-metal ions and were acidified with 10% (v/v) nitric acid for 1 h with gentle heating for releasing the bound metal ions from the protein for ICP analysis. The samples were then mixed with 115In as an internal standard to reach a final concentration of 10 ppb in 1% HNO3. After calibration with the isotope standards ^209Bi, ^66Zn and ^34S from Sigma, the samples were subsequently injected into a quadrupole-based inductively coupled plasma mass spectrometer (Agilent 7500a, Agilent Technologies, CA, USA). ^209Bi, ^66Zn and ^34S isotopes abundances were determined simultaneously by integration of peak areas using the build-in software from the instrument so that ^34S abundance serves as a way for quantifying protein concentration in each sample.

NDM-1 [4] = target: T1, NDM-1; assay: Zn(II) supplementation assay; assay type: biochemical; settings: Bi-NDM-1 from apo-NDM-1 and CBS; ZnSO4 up to 2 molar equivalents; apo-NDM-1 + 2 eq Zn = 1
Method: To investigate whether enzyme inhibition can be reversed, enzyme activities of apo-NDM-1 and Bi-NDM-1 were compared with the supplementation of Zn(II). Bi-NDM-1 (50 nM) was prepared by pre-incubation of apo-NDM-1 with CBS for 2 h at 25° C. and the bound Bi was verified using ICP-MS. The above protein solutions were mixed with ZnSO4 at concentration up to 2 molar equivalents to NDM-1 and 100 μM MER. The change in absorbance at 300 nm was monitored in a 1 cm quartz cuvette using Varian Cary® 50 UV-visible spectrophotometer at 25° C. for reaction rate calculations. Reaction rate of apo-NDM-1 with addition of 2 molar equivalents of ZnSO4 was normalized to be 1. […]. […] To confirm this, the metal contents of both Zn(II) and Bi(III) were monitored by inductively-coupled plasma mass spectrometry (ICP-MS) as described below.

[5] = tested on: Rosetta (DE3) (NDM-1+) bacterial cells; assay: Growth with other β-lactam antibiotics in presence of Bi(III) compounds; assay type: cell-based, E. coli; settings: CEF 32 μg mL^−1; CBS 32 or Bi-NAC 16 μg mL^−1
Method: Note that evident restoration of activities of antibiotics was observed. The concentrations used in this test represent are: CBS […], Bi-NAC 16 μg mL^−1, all the antibiotics 32 μg mL^−1. Abbreviation: AMOX: amoxicillin; AMP: ampicillin; NAF: nafcillin; CEF: cefdinir.

E. coli (NDM-1+) [6] = assay: Murine peritonitis infection model; assay type: in vivo, BALB/c mice; settings: MER (5 mg kg^−1) co-administered with CBS (20 mg kg^−1), i.p., day 4 post infection
Method: FIG. 15 is a survival curve showing efficacies in a murine peritonitis infection model. BALB/c mice were infected by a lethal dose of E. coli clinical isolate (NDM-1) via i.p. injection and treated with one dose and 4 h post infection, followed by twice-daily treatment via i.p. injection. Five groups of mice were treated with MER (5 mg kg^−1), CBS (20 mg kg^−1), the combination of MER (5 mg kg^−1) and CBS (20 mg kg^−1), CBS (20 mg kg^−1, in the absence of bacteria) and PBS, respectively. P<0.001, Mantel-Cox test.
Briefly, an overnight culture of E. coli (NDM-1^+) was performed 1:250 dilution in 50 mL LB broth and re-grew to about OD of 0.3 in a 250-mL flask after 2.5 hrs shaking at 37° C., 250 rpm. The resulting bacterial pellets were collected and washed by PBS three times for further use. For bacterial infection, mice (female BALB/c strain, 6-8 weeks of age, 18-22 g of weight) were induced intraperitoneally (i.p.) with a dose of 10^5 CFU bacteria in a 400 μL aliquot of PBS supplemented with 2% mucin. 4 groups of mice were i.p. administered 4 hrs post-infection with a 100 μL aliquot of PBS, MER, CBS and a combination of MER and CBS, respectively. Body weights and mice survival were monitored for endpoint until day 4 post infection.

E. coli (NDM-1+) [7] = assay: Time kill assay; assay type: cell-based; settings: combination 16 μg mL^−1 MER and 32 μg mL−1 CBS, endpoint 24 hrs
Method: Time kill assay was used to further explore the synergy between MER and Bi(III) compounds which were represented by CBS herein. In a typical assay, the concentrations of the compounds used in this test represent as follows: 16 μg mL^−1 MER, 32 μg mL−1 CBS. Bacteria were cultured for overnight and diluted 1:250 into LB broth at 37° C. for 3 hrs to reach log phase. The initial bacterial concentration was adjusted to ˜10^7 CFU mL^−1 according to standard curve. Tested compounds either alone or in combination was added to 20 mL of freshly prepared bacterial solution in a 50 ml tube, and incubate at 37° C. LB broth with no compounds served as a positive control. Aliquots of […] suspension were withdrawn after different time intervals (0, 1, 2, 4, 6, 8, and 24 hrs). Bacterial concentrations were estimated from colony counts by serial dilution in phosphate-buffered saline (PBS) and plating on LB agar. All assays were triplicated and performed three times in different days. Data from three independent experiments were averaged and plotted as log10 CFU mL^−1 versus time (h) for each time point over 24 hrs as shown in FIG. 12.

T1 sequence (C7C422 whole entry, looked up): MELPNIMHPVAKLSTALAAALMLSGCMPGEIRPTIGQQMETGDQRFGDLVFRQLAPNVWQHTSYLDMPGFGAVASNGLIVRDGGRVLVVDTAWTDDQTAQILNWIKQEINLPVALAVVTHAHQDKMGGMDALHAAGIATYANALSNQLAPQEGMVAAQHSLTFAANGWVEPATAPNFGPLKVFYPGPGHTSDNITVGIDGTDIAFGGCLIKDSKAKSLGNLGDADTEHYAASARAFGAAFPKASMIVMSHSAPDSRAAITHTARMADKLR

## O=C([O-])CC([O-])(CC(=O)[O-])C(=O)[O-].O=C([O-])CC([O-])(CC(=O)[O-])C(=O)[O-].[Bi+3].[Bi+3].[K+] [Complex 10, colloidal bismuth subcitrate]
NDM-1 [1]
  Vmax: 0.26 ± 0.01
NDM-1 [2]
  IC50: 5.83 ± 0.53 µM
VIM-2
  IC50: 44.5 ± 3.94 µM
E. coli (VIM-2+)
  MBC of MER with Bi(III) compound: 1 µg/mL
  MIC of MER with Bi(III) compound: 0.5 µg/mL
NDM-1 [3]
  Bi(III) bound to NDM-1: 0.96 equivalent
  Zn(II) replaced from NDM-1: 2.13 molar equivalents
NDM-1 [4]
  enzyme activity restored upon supplementation of Zn(II) to Bi-NDM-1: 25%
[5]
  reduction of growth rate of bacterial cells, with CEF: 76%
E. coli (NDM-1+) [6]
  survival rate at the endpoint of experiment: 50%
E. coli (NDM-1+) [7]
  lowering of bacteria density versus single components: more than 1000 fold
